In patent US12583870B2, “Azaheteroaryl compound and application thereof” (SHANGHAI BLUERAY BIOPHARMA CO., LTD., priority 2019, dated 2026):

Experiments:
[1] = tested on: trimethylation level of histone H3K27 in G401 cells; assay: ELISA (H3K27 trimethylation) analysis in G401 cells; format: cell-based; conditions: Homo sapiens, G-401, 72 hours, H3K27me3 standardized to H3
Protocol: 3-fold series dilution with DMSO was carried out on the representative compounds of the present disclosure; and 10 concentration gradients were detected for each compound, with the highest detection concentration of 10 μM. The compounds were diluted 200-fold into the G401 cells cultured in a 96-well plate (DMSO at a final concentration of 0.5%). After the cells, administered with the compound, were cultured for 72 hours, the trimethylation level of the histone H3K27 was detected using the ELISA method.
Extraction of the histone: in a 96-well plate, the compound-treated cells were washed three times with 1×PBS (10×PBS buffer (80 g NaCl (Sigma, product number S3014), 2 g KCl (Sigma, product number 60128), 14.4 g Na2HPO4 (Sigma, product number S5136), and 2.4 g KH2PO4 (Sigma, product number P9791) in 1 L of water, adjusting the pH to 7.4)). 100 μL of 0.4 N HCl was added into each well. The plate was placed at 4° C. and gently agitated for 2 hours to lyse the cells. The cell lysate was then neutralized with 80 μL of neutralization buffer (0.5 M disodium hydrogen phosphate, pH 12.5, 2.5 mM DTT; 1% cocktail (Sigma, product number P8340)) (the cell lysate and the neutralization buffer were thoroughly mixed to uniformity).
ELISA detection method: the cell lysate was transferred in parallel to two 384-well detection plates (PerkinElmer, OptiPlate-384HB, product number 6007290), wherein one of the plates was used to detect the H3K27 trimethylation level and the other plate was used to determine the level of H3. PBS was used to adjust the final volume to 50 μL/well. The plates were coated at 4° C. overnight. On the following day, the solution inside the wells was discarded and the plates were washed 5 times with TBST buffer (1×TBS (10×TBS: 24.2 g Tris (Sigma, product number T6066), 80 g NaCl (Sigma, product number S3014) in 1 L of water, adjusting the pH with HCl to 7.6), 0.1% Tween-20) and dried on an absorbent paper by inversion. 70 μL of blocking buffer (TBST, 5% BSA) was added into the coated reaction wells and the plates were incubated at room temperature for 1 hour. The blocking buffer was discarded and primary antibodies were added (30 μL/well). The desired primary antibodies were all diluted with a blocking buffer and the dilution factor was as follows: anti-H3K27me3 antibody (Cell Signaling Technology, product number 9733), 1:2000 dilution; anti-H3 antibody (Cell Signaling Technology, product number 4499), 1:10000 dilution. After the primary antibodies were added, the plates were placed at room temperature and incubated for 1 hour. After the plates were washed with TBST 5 times, the plates were dried by inversion. A secondary antibody (30 μL/well) was added to each of the reaction wells and the plates were incubated at room temperature for 1 hour. The secondary antibody (anti-rabbit antibody (Jackson ImmunoResearch, product number 111-035-003)) was diluted 2000-fold with a blocking buffer before use. After 1 hour, the plates were washed with TBST and dried by inversion. 30 μL of ECL substrate (Pierce, product number 34080) was added into each well and centrifuged at 2000 rpm for 30 seconds. The signal of each sample was detected using SpectraMax (Molecular Devices). Data processing: H3K27 methylation readings were first standardlized using H3 signals and 0.5% DMSO-treated samples was used as the control to calculate the inhibition percentage of the compounds. Data were fit to obtain Dose-Response curves using the GraphPad prism 5 program and the IC50 values of the test compounds were obtained.

KARPAS-422 cells = assay: Cell proliferation analysis, KARPAS-422, 13 days, CellTiter-Glo; format: cell-based; conditions: Homo sapiens, 312 h
Protocol: Human B-cell non-Hodgkin lymphoma cells, KARPAS-422 S, were cultured in a culture flask using standard cell culture conditions. The medium contained 15% fetal bovine serum (FBS, Invitrogen, product number 10099-141) and 1% penicillin/streptomycin solution (P/S) RPMI-1640 (Invitrogen, product number 11875), and the culture flask was placed and cultured in a sterile incubator at the temperature of 37° C. and […] with a relative humidity of […] To detect the effect of PRC2 inhibitors on cell proliferation, cells in exponential growth phase were taken and seeded into a 96-well plate (Corning, product number 3904) at a density of 1×10^4 cells/well, and 100 μL of the medium was added into each well. Subsequently, the compounds at different concentrations disclosed in the present disclosure were added into the wells where cells had already been seeded (9 concentration gradients were provided for each compound, with the highest detection concentration at 10 μM, 3-fold gradient dilution) and two replicates in parallel were provided for each treatment concentration. DMSO was at a final concentration of 0.5%. Afterwards, viable cell numbers were determined using Vi-CELL (Beckman Coulter) every 3-4 days. Cells counted were seeded into a new 96-well plate at the same density (1×10^4 cells/well) each time. The wells were supplemented with a fresh medium to 100 μL and at the same time, compounds at different concentrations were added. The cells were cultured to day 13. 100 μL of CellTiter-Glo (CellTiter-GloCellTiter-GloCellTiter-GloCTG) (Promega, product number G7573) was added into each well. The plate was placed in the dark at room temperature for 10-20 minutes and the luminescence signal was read using SpectraMax i3× (Molecular Devices).

Row | SMILES | IC50 [1] | IC50 (KARPAS-422 cells)
1 | Fc1ccc2c(c1CNc1ncc(-c3cccc4scnc34)c3nncn13)CCO2 [8-(benzo[d]thiazol-4-yl)-N-((5-fluoro-2,3-dihydrobenzofuran-4-yl)methyl)-[1,2,4]triazolo[4,3-c]pyrimidin-5-amine] | 0.0047 µM | 0.0036 µM
2 | Fc1ccc2c(c1CNc1ncc(-c3ccc(C(F)(F)F)n4ccnc34)c3nncn13)CCO2 [N-((5-fluoro-2,3-dihydrobenzofuran-4-yl)methyl)-8-(5-(trifluoromethyl)imidazo[1,2-a]pyridin-8-yl)-[1,2,4]triazolo[4,3-c]pyrimidin-5-amine] | 0.0106 µM | 0.007 µM
3 | Cc1ccc(-c2cnc(NCc3c(F)ccc4c3CCO4)n3cnnc23)c2ncc(C#N)n12 [8-(5-(((5-fluoro-2,3-dihydrobenzofuran-4-yl)methyl)amino)-[1,2,4]triazolo[4,3-c]pyrimidin-8-yl)-5-methylimidazo[1,2-a]pyridine-3-carbonitrile] | 0.0052 µM | 0.003 µM
4 | Fc1ccc2c(c1CNc1ncc(-c3ccc(Cl)n4ncnc34)c3nncn13)CCO2 [8-(5-chloro-[1,2,4]triazolo[1,5-a]pyridin-8-yl)-N-((5-fluoro-2,3-dihydrobenzofuran-4-yl)methyl)-[1,2,4]triazolo[4,3-c]pyrimidin-5-amine] | 0.033 µM | 0.018 µM
5 | N#Cc1ccc(-c2cnc(NCc3c(F)ccc4c3CCO4)n3cnnc23)c2nccn12 [8-(5-(((5-fluoro-2,3-dihydrobenzofuran-4-yl)methyl)amino)-[1,2,4]triazolo[4,3-c]pyrimidin-8-yl)imidazo[1,2-a]pyridine-5-carbonitrile] | 0.0048 µM | 0.0036 µM
6 | CN(C)c1nc2c(-c3cnc(NCc4c(F)ccc5c4CCO5)n4cnnc34)cccn2n1 [8-(2-(dimethylamino)-[1,2,4]triazolo[1,5-a]pyridin-8-yl)-N-((5-fluoro-2,3-dihydrobenzofuran-4-yl)methyl)-[1,2,4]triazolo[4,3-c]pyrimidin-5-amine] | 0.0084 µM | 0.0054 µM
7 | NC(=O)c1cnc2c(-c3cnc(NCc4c(F)ccc5c4CCO5)n4cnnc34)cc(F)cn12 [6-fluoro-8-(5-(((5-fluoro-2,3-dihydrobenzofuran-4-yl)methyl)amino)-[1,2,4]triazolo[4,3-c]pyrimidin-8-yl)imidazo[1,2-a]pyridine-3-carboxamide] | 0.0134 µM | 0.0046 µM
8 | Fc1ccc2c(c1CNc1ncc(-c3ccc(C(F)F)n4ncnc34)c3nncn13)CCO2 [8-(5-(difluoromethyl)-[1,2,4]triazolo[1,5-a]pyridin-8-yl)-N-((5-fluoro-2,3-dihydrobenzofuran-4-yl)methyl)-[1,2,4]triazolo[4,3-c]pyrimidin-5-amine] | 0.0055 µM | 
9 | CCOC(=O)c1cnc2c(-c3cnc(NCc4c(F)ccc5c4CCO5)n4cnnc34)ccc(C)n12 [Ethyl 8-(5-(((5-fluoro-2,3-dihydrobenzofuran-4-yl)methyl)amino)-[1,2,4]triazolo[4,3-c]pyrimidin-8-yl)-5-methylimidazo[1,2-a]pyridine-3-carboxylate] |  | 0.0047 µM
10 | CN(C)c1ccc(-c2cnc(NCc3c(F)ccc4c3CCO4)n3cnnc23)c2nncn12 [8-(5-(dimethylamino)-[1,2,4]triazolo[4,3-a]pyridin-8-yl)-N-((5-fluoro-2,3-dihydrobenzofuran-4-yl)methyl)-[1,2,4]triazolo[4,3-c]pyrimidin-5-amine] | 0.0078 µM | 
11 | N#Cc1cc(-c2cnc(NCc3c(F)ccc4c3CCO4)n3cnnc23)c2ncnn2c1 [8-(5-(((5-fluoro-2,3-dihydrobenzofuran-4-yl)methyl)amino)-[1,2,4]triazolo[4,3-c]pyrimidin-8-yl)-[1,2,4]triazolo[1,5-a]pyridine-6-carbonitrile] | 0.0143 µM | 
12 | Cc1ccc(-c2cnc(NCc3c(F)ccc4c3CCO4)n3cnnc23)c2ncc(S(C)(=O)=O)n12 [N-((5-fluoro-2,3-dihydrobenzofuran-4-yl)methyl)-8-(5-methyl-3-(methylsulfonyl)imidazo[1,2-a]pyridin-8-yl)-[1,2,4]triazolo[4,3-c]pyrimidin-5-amine] | 0.088 µM | 

Next, values leading:

Row | IC50 [1] | IC50 (KARPAS-422 cells) | SMILES
13 | 0.0008 µM | 0.0005 µM | CC1CN(c2ccc(-c3cnc(NCc4c(F)ccc5c4CCO5)n4cnnc34)c3ncnn23)CCO1 (stereo not drawn) [N-((5-fluoro-2,3-dihydrobenzofuran-4-yl)methyl)-8-(5-(2-methylmorpholino)-[1,2,4]triazolo[1,5-a]pyridin-8-yl)-[1,2,4]triazolo[4,3-c]pyrimidin-5-amine]
14 | 0.0007 µM | 0.0013 µM | CN(C)C(=O)c1ccc(-c2cnc(NCc3c(F)ccc4c3CCO4)n3cnnc23)c2nccn12 [8-(5-(((5-fluoro-2,3-dihydrobenzofuran-4-yl)methyl)amino)-[1,2,4]triazolo[4,3-c]pyrimidin-8-yl)-N,N-dimethylimidazo[1,2-a]pyridine-5-carboxamide]
15 | 0.0018 µM |  | CN(C)c1ncc(-c2cnc(NCc3c(F)ccc4c3CCO4)n3cnnc23)c2ncnn12 [8-(5-(dimethylamino)-[1,2,4]triazolo[1,5-c]pyrimidin-8-yl)-N-((5-fluoro-2,3-dihydrobenzofuran-4-yl)methyl)-[1,2,4]triazolo[4,3-c]pyrimidin-5-amine]
16 | 0.0027 µM | 0.0032 µM | Fc1ccc2c(c1CNc1ncc(-c3ccc(N4CCCC4)n4ncnc34)c3nncn13)CCO2 [N-((5-fluoro-2,3-dihydrobenzofuran-4-yl)methyl)-8-(5-(pyrrolidin-1-yl)-[1,2,4]triazolo[1,5-a]pyridin-8-yl)-[1,2,4]triazolo[4,3-c]pyrimidin-5-amine]
17 | 0.0006 µM |  | Cc1nc2c(-c3cnc(NCc4c(F)ccc5c4CCO5)n4cnnc34)ccc(N(C)C)n2n1 [8-(5-(dimethylamino)-2-methyl-[1,2,4]triazolo[1,5-a]pyridin-8-yl)-N-((5-fluoro-2,3-dihydrobenzofuran-4-yl)methyl)-[1,2,4]triazolo[4,3-c]pyrimidin-5-amine]
18 | 0.0023 µM |  | CP(C)(=O)c1cnc2c(-c3cnc(NCc4c(F)ccc5c4CCO5)n4cnnc34)cc(F)cn12 [(6-fluoro-8-(5-(((5-fluoro-2,3-dihydrobenzofuran-4-yl)methyl)amino)-[1,2,4]triazolo[4,3-c]pyrimidin-8-yl)imidazo[1,2-a]pyridin-3-yl)dimethylphosphine oxide]
19 | 0.0008 µM |  | Cc1ccc(-c2cnc(NCc3c(F)ccc4c3CCO4)n3cnnc23)c2nnc(C)n12
20 | 0.0028 µM |  | CN(C)c1c(F)cc(-c2cnc(NCc3c(F)ccc4c3CCO4)n3cnnc23)c2ncnn12 [8-(5-(dimethylamino)-6-fluoro-[1,2,4]triazolo[1,5-a]pyridin-8-yl)-N-((5-fluoro-2,3-dihydrobenzofuran-4-yl)methyl)-[1,2,4]triazolo[4,3-c]pyrimidin-5-amine]
